The values that follow come from PMC7481839, “Switchable foldamer ion channels with antibacterial activity” (Chemical Science, 2020).

Like-named read-outs stand apart in the source and are kept apart here.

A short description of assay [1]: Lucigenin assay of Cl− transport in vesicles. The assay is classed as biochemical. As to conditions: 100 µM compound, interior NaNO3 200 mM, exterior NaCl (2 M), 25°C, first-order curve fit. As for the experimental part: To confirm that chloride could pass through the bilayers, lucigenin assays[5a] were performed for 2, Cu(II)[1]Cl2 and Cu(II)[2]Cl2 (Fig. 5 and ESI, Fig. S10 ^†). The same lipids were used as for the HPTS assays and lucigenin was encapsulated with NaNO3 in the vesicles.
Figure S9: Ionophoric activity determined through an HPTS assay in the presence of NaCl (100 mM) for: 2 (10 µM) in the absence (pink inverted triangles) and presence of FCCP (20 µM, blue triangles) and Cu(II)[2]Cl2 (6 µM) in the absence (red circles) and presence of FCCP (20 µM, black squares). Base pulse at 1 min, TX-100 added at 7 min.
5.4 Preparation of large unilamellar vesicles for lucigenin assays […]
Lucigenin assays procedure and fluorescence normalisation were developed by a modification of published methods.10 An aliquot of the vesicle stock solution (100 μL) w as diluted to 1.9 mL with 200 mM NaNO 3 in water (pH = 7.4) (final lipid co ncentration in cuvette 0.762 mM). […] The cuvette was then placed into a Varian Cary Eclipse fluorescence spectrophotometer in the moderate stirring mode. The fluorescence emission at 505 nm was observed, resulting from excitation at 455 nm, over a period of seven minutes (420 seconds) at 25°C. […] The change in fluorescence was followed for six minutes before final lysis of the vesicles at seven minutes (420 s) by adding an aliquot of a 10 % v/v solution of Triton X-100 […]

The test system of assay [2] is human erythrocytes. The following applies: in phosphate buffer after 1 h incubation; read-out: reported EC50 for haemolysis; cited from earlier work. An excerpt:
Although alamethicin is a very active channel former, its use in the clinic is hampered by its high haemolytic activity.[52]

For assay [3] the following is noted: cited from earlier work. From the text:
Application of Hille's equation[47] to estimate the inner channel diameters for both Cu(II)[2]Cl2 and Cu(II)[2]Cl·HCO3 provided approximate pore diameters of 1.5 nm, 2.1 nm and 2.3 nm for the different conductance levels (see the ESI ^†). […] Planar bilayer conductance (PBC) studies Alamethicin provides a useful comparison to the data reported in the manuscript and in the ESI.

Assay [4] has as its system human erythrocytes. The assay is described as follows: Haemolysis assay. Type of assay: cell-based. As to conditions: fresh blood diluted with PBS (1:2), compound in DMSO, 37 °C for 30 min, triplicates, read-out: EC50 for haemolysis (haemoglobin release).
The test system of assay [5] is B. megaterium strain DSM319. The assay is described as follows: Antimicrobial assay: minimum inhibitory concentration (MIC). Type of assay: cell-based. As to conditions: B. megaterium strain DSM319, LB broth, about 3 × 10^6 CFU/mL, 30 °C overnight, OD 600 nm, compound in DMSO, three biological repeats with three technical repeats. As for the experimental part: The antibiotic activities of 1, 2, Cu(II)[1]Cl2 and Cu(II)[2]Cl2 were measured against B. megaterium strain DSM319 (see the ESI ^†).
Metal ion chelating Aib foldamers 1 and 2 bear a novel amino-terminal copper and nickel (ATCUN) binding motif; other ATCUN motifs are reported to increase antibiotic properties by generating reactive oxygen species upon metal binding.24 Furthermore many copper-containing metallodrugs have been stu died for their anticancer25 and antibiotic properties.26 Introducing the Cu(II)(BPTA) group onto the Aib octamer unit […]
antibiotic studies of long Aib n oligomers (n ≥ 10).15
7.1 Antimicrobial assays: minimum inhibitory concentrations (MIC)
The used procedure was developed by modification of published methods.27 The antimicrobial activity of the appropriate compound was tested against B. megaterium strain DSM319. Bacteria were grown over night at 30 °C in standard lysogeny broth (LB) broth from a single colony overnight. An aliquot from this suspension was taken and diluted (1:100) in fresh LB broth until the suspension reached the mid - logarithmic phase (OD600 = 0.4). […]
The plates were shaken for about 30 seconds and the optical density (OD) was measured at 600 nm.
Afterwards the plates were incubated at 30 °C under aerobic conditions with shaking overnight. The absorbance was then measured at 600 nm using a ClarioStar plate reader. […]

As for alamethicin, in assay [1], the “kobs of Cl− transport (lucigenin assay)” value amounted to 0.0073 s⁻¹. Further, the EC50 with human erythrocytes [2] is 1.45 µM. Also, in assay [3], the “proposed pore diameter, hexameric pores” value is listed as 1.1 nm and the “proposed pore diameter, octameric pores” value is 1.8 nm. In addition, in the assay on human erythrocytes [4], the EC50 amounted to 1.4 µM. Moreover, in assay [5], the “MIC, minimum inhibitory concentration” value worked out at 6 ± 2 µM.
